# Data reported in ChEMBL document CHEMBL1140783, “Design and synthesis of 4-quinolinone 2-carboxamides as calpain inhibitors” (Bioorg Med Chem Lett, 2008).
# Target: T1, Calpain-1 catalytic subunit (Homo sapiens, UniProt P07384)
# T1 sequence (P07384 whole entry): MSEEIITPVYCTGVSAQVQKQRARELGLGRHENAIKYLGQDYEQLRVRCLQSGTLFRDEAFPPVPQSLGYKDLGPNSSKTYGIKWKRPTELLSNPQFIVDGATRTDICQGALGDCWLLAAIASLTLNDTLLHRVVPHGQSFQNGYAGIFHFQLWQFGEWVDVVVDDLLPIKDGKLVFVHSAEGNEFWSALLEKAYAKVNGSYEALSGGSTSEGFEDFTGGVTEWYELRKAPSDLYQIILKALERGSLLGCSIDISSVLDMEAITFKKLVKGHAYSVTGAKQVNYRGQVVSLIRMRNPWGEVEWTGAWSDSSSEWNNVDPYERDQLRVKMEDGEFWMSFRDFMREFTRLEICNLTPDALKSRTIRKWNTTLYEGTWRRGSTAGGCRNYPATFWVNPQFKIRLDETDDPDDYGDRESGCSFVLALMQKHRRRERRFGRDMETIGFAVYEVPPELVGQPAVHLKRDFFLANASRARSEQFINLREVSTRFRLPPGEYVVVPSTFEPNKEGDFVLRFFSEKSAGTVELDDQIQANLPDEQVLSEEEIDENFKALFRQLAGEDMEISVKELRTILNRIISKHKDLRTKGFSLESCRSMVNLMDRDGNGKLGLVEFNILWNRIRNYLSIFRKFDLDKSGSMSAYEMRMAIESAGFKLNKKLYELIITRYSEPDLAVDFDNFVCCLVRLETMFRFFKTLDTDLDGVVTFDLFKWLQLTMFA
# Assay: Inhibition of human mu-calpain
row,IC50,Structure (SMILES)
1,0.04 µM,Cc1c(C(=O)N[C@@H](Cc2ccccc2)C(=O)C(N)=O)oc2ccccc2c1=O
2,5.01 µM,Cc1c(C(=O)N[C@@H](Cc2ccccc2)C(=O)C(=O)NCc2ccccc2)[nH]c2ccccc2c1=O
3,1.78 µM,COc1ccc(CNC(=O)C(=O)[C@H](Cc2ccccc2)NC(=O)c2[nH]c3ccccc3c(=O)c2C)cc1OC
4,5.63 µM,Cc1c(C(=O)N[C@@H](Cc2ccccc2)C(=O)C(=O)NCc2ccc(F)cc2)[nH]c2ccccc2c1=O
5,7.72 µM,Cc1c(C(=O)N[C@@H](Cc2ccccc2)C(=O)C(=O)NCc2ccccn2)nc2ccccc2c1O
6,0.73 µM,COc1ccc(CCNC(=O)C(=O)[C@H](Cc2ccccc2)NC(=O)c2[nH]c3ccccc3c(=O)c2C)cc1
7,6.28 µM,Cc1c(C(=O)N[C@@H](Cc2ccccc2)C(=O)C(=O)NCCc2ccccn2)[nH]c2ccccc2c1=O
8,0.71 µM,Cc1c(C(=O)N[C@@H](Cc2ccccc2)C(=O)C(N)=O)nc2ccccc2c1O
9,8.62 µM,CNC(=O)C(=O)[C@H](Cc1ccccc1)NC(=O)c1[nH]c2ccccc2c(=O)c1C
10,40.2 µM,CCNC(=O)C(=O)[C@H](Cc1ccccc1)NC(=O)c1nc2ccccc2c(O)c1C
11,3.81 µM,COc1ccc(CNC(=O)C(=O)[C@H](Cc2ccccc2)NC(=O)c2nc3ccccc3c(O)c2C)cc1
12,3.71 µM,Cc1c(C(=O)N[C@@H](Cc2ccccc2)C(=O)C(=O)NCCc2ccccc2)nc2ccccc2c1O
13,> 50 µM,Cc1c(C(=O)N[C@@H](Cc2ccccc2)C(=O)C(=O)NC(C)C)nc2ccccc2c1O
